Experimental data published in patent US20080287445A1, “Prokineticin 2 receptor antagonists” (priority 2005, published 2008).
Several values for one entry are separate records, joined by “and”; a condition that tells them apart may be missing. Equal values may be shown once.

Biological target: T1, GPR73 (prokineticin 1 receptor) (Homo sapiens, UniProt Q8TCW9)
T1 construct: expressed in transfected cells; host or cells: HEK 293
Experiment: PK1 functional assay: Ca2+ mobilization screening for PK1 antagonists on the FLIPR
Type: cell-based
Conditions: HEK 293 GPR73 cells, multiple values = multiple testing; for inhibition at 10 µM: HEK293, 10 μM compound, read-out: Ca^2+ Mobilization % Inh @ 10 μM; for IC50: PK1 ligand preparation at its EC50, read-out: Ca^2+ Mobilization IC50; for Ca^2+ Mobilization % Inh @ 10 μM: 10 μM compound
Procedure: At a time of 24 h prior to running the assay, in cell culture media (DMEM containing high Glucose and L-glutamine, 10% FBS, 1% Pen/Streptomycin, 1% Sodium Pyruvate, 20 mM HEPES, Zeocin 200 mg/L), 100 μL of 1.3*10^6/ml HEK 293 GPR73 (prokineticin 1 receptor) expressing cells were plated in a 96 well poly-d-lysine coated plate (Costar), and incubated at 37 C and 5% CO2. On the day in which the assay was run, the media was removed and 200 μL of 5× Calcium Plus Dye (Molecular Devices) which was previously resuspended with 200 mL of assay buffer [HBSS w/Ca^2+ and Mg^2+ w/o phenol red, 20 mM HEPES, 0.1% BSA, 10 mL probenecid (710 mg probenecid in 5 mL of 1N NaOH, to which was then added 5 mL HBSS containing 20 mM HEPES)] was added to each well of the 96-well plate. The plate was incubated at 37 C and 5% CO2 for 30 min in dark. The plate was removed and allowed to reach RT for 15 min in the dark. The assay was then run on the FLIPR. In Brief: base line read for 1 min, compound added (25 μL) and incubated for 4 min, 15 seconds, PK1 ligand preparation added (25 μL) for a final concentration of a previously determined EC50 and fluorescence was counted for 1 min, 45 seconds. Baseline is described as the amount of relative fluorescence read when buffer alone is added to cells. Baseline was subtracted from all wells. Percent of control was calculated as follows:
(Baseline subtracted well value is divided by baseline subtracted max value)*100. Percent inhibition is 100 minus the percent of control value.
The IC50 is defined as the amount of a given compound required to inhibit 50% of the maximum signal that is generated by the concentration of PK1 preparation used in our assay. IC50 values were calculated using GraphPad Prism.

T1 sequence (Q8TCW9 whole entry, species assumed): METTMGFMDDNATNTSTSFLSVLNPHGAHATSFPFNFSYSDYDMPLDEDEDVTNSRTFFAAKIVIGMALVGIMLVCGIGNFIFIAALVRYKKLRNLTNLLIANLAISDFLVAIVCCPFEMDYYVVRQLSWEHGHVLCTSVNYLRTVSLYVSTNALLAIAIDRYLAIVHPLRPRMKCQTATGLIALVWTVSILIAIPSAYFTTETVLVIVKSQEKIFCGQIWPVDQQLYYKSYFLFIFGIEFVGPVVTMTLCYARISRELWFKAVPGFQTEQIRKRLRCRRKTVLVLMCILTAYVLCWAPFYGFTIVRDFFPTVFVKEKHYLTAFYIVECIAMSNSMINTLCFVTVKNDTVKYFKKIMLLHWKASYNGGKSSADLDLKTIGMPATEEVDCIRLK

inhibition at 10 µM	IC50	Ca^2+ Mobilization % Inh @ 10 μM	Compound
99%	110 nM	–	COc1ccc(Cn2c(=O)nc(NCc3cnc(C)cc3C)n(Cc3cc4ccccc4o3)c2=O)cc1 [Cpd 102]
41%	> 10000 nM	–	CCCCCCn1c(NCc2cnc(C)cc2C)nc(=O)n(Cc2ccc(OC)cc2)c1=O [Cpd 103]
96%	193 nM	–	COc1ccc(Cn2c(=O)nc(NCc3cnc(C)cc3C)n(Cc3ccc(OC)nc3)c2=O)cc1 [Cpd 104]
85%	437 nM	–	COc1ccc(Cn2c(=O)nc(NCc3cnc(C)cc3C)n(Cc3ccccc3OC(F)(F)F)c2=O)cc1 [Cpd 105]
89%	868 nM	–	CCOc1ccc(Cn2c(=O)nc(NCc3cnc(C)cc3C)n(Cc3ccc(OC)cc3)c2=O)cc1 [Cpd 107]
42%	> 10000 nM	–	COc1ccc(Cn2c(NCc3cnc(C)cc3C)nc(=O)n(Cc3ccc([N+](=O)[O-])cc3)c2=O)cc1 [Cpd 108]
89%	681 nM	–	C=CCC(c1ccc(OC)cc1)n1c(=O)nc(NCc2cnc(C)cc2C)n(Cc2ccc(OC)cc2)c1=O (centres unmarked) [Cpd 109]
48%	9070 nM	–	COc1ccc(Cn2c(NCc3cnc(C)cc3C)nc(=O)n(Cc3ccc(C(F)(F)F)cc3)c2=O)cc1 [Cpd 110]
57%	7880 nM	–	COc1ccc(Cn2c(NCc3cnc(C)cc3C)nc(=O)n(Cc3cccc(OC)c3)c2=O)cc1 [Cpd 111]
74%	2550 nM	–	COc1ccc(Cn2c(NCc3cnc(C)cc3C)nc(=O)n(Cc3cccc(F)c3)c2=O)cc1 [Cpd 112]
48%	6310 nM	–	COC(=O)c1ccc(Cn2c(=O)nc(NCc3cnc(C)cc3C)n(Cc3ccc(OC)cc3)c2=O)cc1 [Cpd 114]
98%	244 nM	–	COc1ccc(Cn2c(NCc3cccc(N)n3)nc(=O)n(Cc3ccc(OC)cc3)c2=O)cc1 [Cpd 115, 6-[(6-Amino-pyridin-2-ylmethyl)-amino]-1,3-bis-(4-methoxy-benzyl)-1H-[1,3,5]triazine-2,4-dione]
95%	391 nM	–	COc1ccc(Cn2c(=O)nc(NCc3cnc(C)cc3C)n(Cc3ccc(F)cc3)c2=O)cc1 [Cpd 116]
97%	218 nM	–	COc1ccc(Cn2c(=O)nc(NCc3cnc(C)cc3C)n(Cc3ccc(Cl)cc3)c2=O)cc1 [Cpd 117]
80%	1370 nM	–	COc1ccc(Cn2c(NCc3c[n+]([O-])c(C)cc3C)nc(=O)n(Cc3ccc(OC)cc3)c2=O)cc1 [Cpd 118]
40%	> 10000 nM	–	COc1ccc(Cn2c(NCc3cccnc3N)nc(=O)n(CCc3c[nH]c4ccccc34)c2=O)cc1 [Cpd 119]
40%	> 10000 nM	–	COc1ccc(Cn2c(NCc3cccnc3N)nc(=O)n(CC3COc4ccccc4O3)c2=O)cc1 (centres unmarked) [Cpd 120]
58%	6330 nM	–	COc1ccc(Cn2c(OCc3cccnc3)cc(=O)n(Cc3ccc(OC)cc3)c2=O)cc1 [Cpd 121, 1,3-Bis-(4-methoxy-benzyl)-6-(pyridin-3-ylmethoxy)-1H-pyrimidine-2,4-dione]
76%	194 nM	–	COc1ccc(Cn2c(NCc3ccc(C(F)(F)F)nc3)nc(=O)n(Cc3ccc(OC)cc3)c2=O)cc1 [Cpd 122]
83%	684 nM	–	COc1ccc(Cn2c(NCc3cnc(C)cc3C)nc(=O)n(Cc3ccc4c(c3)CCO4)c2=O)cc1 [Cpd 123, 3-(2,3-Dihydro-benzofuran-5-ylmethyl)-6-[(4,6-dimethyl-pyridin-3-ylmethyl)-amino]-1-(4-methoxy-benzyl)-1H-[1,3,5]triazine-2,4-dione]
61%	815 nM	–	COc1ccc(Cn2c(NCc3cccnc3N)nc(=O)n(Cc3ccc(OC)c([N+](=O)[O-])c3)c2=O)cc1 [Cpd 124]
97%	54 nM and 14 nM	99%	COc1ccc(Cn2c(=O)nc(NCc3cccnc3N)n(Cc3ccc4c(c3)CCO4)c2=O)cc1 [Cpd 125]
89%	232 nM	–	COc1ccc(Cn2c(=O)nc(NCc3cccnc3N)n(Cc3ccc4occc4c3)c2=O)cc1 [Cpd 126]
81%	607 nM	–	COc1ccc(Cn2c(=O)nc(NCc3cccnc3N)n(Cc3ccc4[nH]ccc4c3)c2=O)cc1 [Cpd 127]

inhibition at 10 µM	IC50	Ca^2+ Mobilization % Inh @ 10 μM	Compound
93%	126 nM and 214 nM	98%	COc1ccc(Cn2c(=O)nc(NCc3cnc(C)cc3C)n(Cc3ccc4c(c3)CCO4)c2=O)cc1 [Cpd 128]
88%	120 nM	–	COc1ccc(Cn2c(=O)nc(NCc3cnc(C)cc3C)n(Cc3ccc4occc4c3)c2=O)cc1 [Cpd 129]
92%	245 nM	–	COc1ccc(Cn2c(=O)nc(NCc3cnc(C)cc3C)n(Cc3ccc4[nH]ccc4c3)c2=O)cc1 [Cpd 130]
100%	122 nM	–	COc1ccc(Cn2c(=O)nc(NCc3cccnc3N)n(Cc3ccc(S(C)(=O)=O)cc3)c2=O)cc1 [Cpd 131]
79%	247 nM	–	COc1ccc(Cn2c(=O)nc(NCc3cnc(C)cc3C)n(Cc3ccc(S(C)(=O)=O)cc3)c2=O)cc1 [Cpd 132]
88%	582 nM	–	COc1ccc(Cn2c(NCc3cnc(C)cc3C)nc(=O)n(Cc3ccc4occc4c3)c2=O)cc1 [Cpd 133]
86%	225 nM	–	COc1ccc(Cn2c(NCc3cccnc3N)nc(=O)n(Cc3ccc4occc4c3)c2=O)cc1 [Cpd 134]
94%	186 nM	–	COc1ccc(Cn2c(=O)nc(NCc3cccnc3N)n(Cc3ccc(OC(C)(C)C)cc3)c2=O)cc1 [Cpd 135]
92%	15 nM and 34 nM	102%	COc1ccc(Cn2c(=O)nc(NCc3cnc(C)cc3C)n(Cc3ccc(OC)c([N+](=O)[O-])c3)c2=O)cc1 [Cpd 136]
68%	1040 nM	–	COc1ccc(Cn2c(=O)nc(NCc3cccnc3N)n(Cc3ccc(OC)c([N+](=O)[O-])c3)c2=O)cc1 [Cpd 137]
61%	1510 nM and 2700 nM	73%	COc1ccc(Cn2c(=O)nc(NCc3cccnc3N)n(Cc3cccc4[nH]ccc34)c2=O)cc1 [Cpd 138]
92%	–	97% and 100%	COc1ccc(Cn2c(=O)nc(NCc3cnc(C)cc3C)n(Cc3cccc4[nH]ccc34)c2=O)cc1 [Cpd 139]
91%	192 nM	–	COc1ccc(Cn2c(=O)nc(NCc3cccnc3N)n(Cc3ccc4sccc4c3)c2=O)cc1 [Cpd 140]
82%	1130 nM	–	COc1ccc(Cn2c(NCc3cccnc3N)nc(=O)n(CCOc3ccc(F)cc3)c2=O)cc1 [Cpd 141, 6-[(2-Amino-pyridin-3-ylmethyl)-amino]-3-[2-(4-fluoro-phenoxy)-ethyl]-1-(4-methoxy-benzyl)-1H-[1,3,5]triazine-2,4-dione]
76%	387 nM	–	COc1ccc(Cn2c(=O)nc(NCc3cnc(C)cc3C)n(Cc3ccc4sccc4c3)c2=O)cc1 [Cpd 142]
31%	> 10000 nM	–	COc1ccc(Cn2c(NCc3cccnc3N)nc(=O)n(Cc3ccccc3OC)c2=O)cc1 [Cpd 143]
36%	> 10000 nM	–	COc1ccc(Cn2c(NCc3cnc(C)cc3C)nc(=O)n(Cc3ccccc3OC)c2=O)cc1 [Cpd 144]
90%	317 nM	–	COc1ccc(Cn2c(NCc3cccnc3N)nc(=O)n(Cc3ccc4sccc4c3)c2=O)cc1 [Cpd 145]
80%	2140 nM	–	COc1ccc(Cn2c(NCc3cnc(C)cc3C)nc(=O)n(Cc3ccc4sccc4c3)c2=O)cc1 [Cpd 146]
99%	110 nM	–	CCCNc1cccc(CNc2nc(=O)n(Cc3ccc(OC)cc3)c(=O)n2Cc2ccc(OC)cc2)n1 [Cpd 147, 1,3-Bis-(4-methoxy-benzyl)-6-[(6-propylamino-pyridin-2-ylmethyl)-amino]-1H-[1,3,5]triazine-2,4-dione]
86%	503 nM	–	COc1ccc(Cn2c(NCc3cccc(N)n3)cc(=O)n(Cc3ccc(OC)cc3)c2=O)cc1 [Cpd 148, 6-[(6-Amino-pyridin-2-ylmethyl)-amino]-1,3-bis-(4-methoxy-benzyl)-1H-pyrimidine-2,4-dione]
86%	788 nM	–	COc1ccc(Cn2c(=O)nc(NCc3cccnc3N)n(CC3CCC(OC)CC3)c2=O)cc1 (centres unmarked) [Cpd 149]
78%	595 nM	–	COc1ccc(Cn2c(=O)nc(NCc3cnc(C)cc3C)n(CC3CCC(OC)CC3)c2=O)cc1 (centres unmarked) [Cpd 150]
